In patent US20240208961A1, “EIF4E INHIBITORS AND USES THEREOF” (PIC Therapeutics, Inc., priority 2022, published 2024):

Tests used:
NCIH510A = experiment: Cell viability assay, suspension cell line, 5 day Alamar Blue (Example 8): NCIH510A; assay type: cell-based; settings: Homo sapiens, NCI-H510A, 120 h, Small Cell Lung Cancer Cell Line
Procedure: (§1) Cell viability assays were performed on certain compounds of the disclosure, according to the following procedure.
(§2) Cell line specific media conditions used:
The procedure for suspension cell line compound screening was as follows:
Day 1: Cell Seeding and Compound Dosing
(§3) • Cells were seeded 2×10^5 in 96-well cell culture treated tissue culture plates: 87.5 μL/well; MM.1 S, MM,1R, NCIH510A. • 5-fold serial dilution (8 point) of each compound in DMSO 0-25 mM in compound storage plates was prepared (stored at −80° C. if not to be used immediately). • Cells were rinsed with 1% FBS Media (appropriate to cell line as described above) and replaced with 87.5 μL media prior to dosing. • DMSO compound dilution series was diluted in 1% FBS media (appropriate to cell line as described above)—2 μL in 248 μL to give an 8× final concentration. • Cells were dosed 12.5 μL/well in triplicate to give final dose curved on cells 0-25 μM. • Media blank 100 μL/well×8 was set up. • All plates were incubated at 37° C.
Day 6: 5 Day Viability Assay
(§4) • Alamar Blue viability reagent was added (10 μL per well) and incubated for 3 hours at 37° C. prior to fluorescence detection (Ex560 nm/Em590 nm) on a Varioskan Lux multimode plate reader.
(§5) Results from cell viability assays are summarized in Table 23, wherein A represents IC50≤1 μM; B represents 1 μM<IC50≤8 μM; and C represents IC50>8 μM. Blank cells indicate that the compound was not tested in a particular assay.

LoVo = experiment: Cell viability assay, adherent cell line, 5 day Alamar Blue (Example 8): LoVo; assay type: cell-based; settings: Homo sapiens, 120 h, Colorectal Cancer Cell Viability
Procedure: as §1, §2
(§6) The procedure for adherent cell line compound screening was as follows:
(§7) • Cells were seeded in 96-well cell culture treated tissue culture plates: ZR-75-1, NIHOVCAR3, T47D, and LOVO cells 4000 cells/well; and HPAFII 3000 cell/well
(§8) Day 3: Compound Dilution and Dosing
as §3, with “•” for “• Cells were seeded 2×10^5 in 96-well cell culture treated tissue culture plates: 87.5 μL/well; MM.1 S, MM,1R, NCIH510A. •”, “dosing. HPAFII was screened in normal 10% FBS Media.” for “dosing.”
(§9) Day 8: 5 Day Viability Assay
as §4, §5

HPAFII = experiment: Cell viability assay, adherent cell line, 5 day Alamar Blue (Example 8): HPAFII; assay type: cell-based; settings: Homo sapiens, HPAF-II, 120 h, Pancreatic Cancer Cell
Procedure: as §1, §2, §6, §7, §8
as §3, with “•” for “• Cells were seeded 2×10^5 in 96-well cell culture treated tissue culture plates: 87.5 μL/well; MM.1 S, MM,1R, NCIH510A. •”, “dosing. HPAFII was screened in normal 10% FBS Media.” for “dosing.”
as §9, §4, §5

T47D = experiment: Cell viability assay, adherent cell line, 5 day Alamar Blue (Example 8): T47D; assay type: cell-based; settings: Homo sapiens, 120 h, Breast Cancer Cell Viability
Procedure: as §1, §2, §6, §7, §8
as §3, with “•” for “• Cells were seeded 2×10^5 in 96-well cell culture treated tissue culture plates: 87.5 μL/well; MM.1 S, MM,1R, NCIH510A. •”, “dosing. HPAFII was screened in normal 10% FBS Media.” for “dosing.”
as §9, §4, §5

NIHOVCAR3 = experiment: Cell viability assay, adherent cell line, 5 day Alamar Blue (Example 8): NIHOVCAR3; assay type: cell-based; settings: Homo sapiens, OVCAR-3, 120 h, OVCAR3, Ovarian Cancer Cell
Procedure: as §1, §2, §6, §7, §8
as §3, with “•” for “• Cells were seeded 2×10^5 in 96-well cell culture treated tissue culture plates: 87.5 μL/well; MM.1 S, MM,1R, NCIH510A. •”, “dosing. HPAFII was screened in normal 10% FBS Media.” for “dosing.”
as §9, §4, §5

ZR-75-1 tumor = experiment: ZR-75-1 subQ CDX model; assay type: in vivo; settings: female BALB/c nude mice, 50 mg/kg, PO, QW, FIG. 14
Procedure: Female BALB/c nude mice were inoculated with estrogen tablets (0.36 mg/pellet, 60 days to release) 48 hours before cell inoculation. The xenograft model was established by implantation of […] of ZR-75-1 tumor cell suspension (5×10^6 cells/mouse, with 50% Matrigel) subcutaneously into the right subaxillary of female BALB/c nude mice aged 6-8 weeks. When the average tumor volume reached 153.10 mm^3, the tumor-bearing mice were randomized into treatment groups. The groups were treated as follows: Group 1: vehicle, PO, QW; Group 2: Tamoxifen 10 mg/kg, PO, QD; Group 3: Compound I-11 50 mg/kg, PO, QW.
Cell culture: The ZR-75-1 (breast, ductal carcinoma) cell was purchased from (ATCC® CRL-1500™). The base medium for this cell line ATCC-formulated RPMI-1640 Medium. To make the complete growth medium, the base medium was supplemented with 10% heat inactivated FBS and 1% PS, maintained at 37° C. in an atmosphere containing 5% CO2 in air. The tumor cells were routinely subcultured at a ratio of 1:1.5 to 1:3 every 3-6 days. Cell concentration at harvest time was 5.39×10^7 cells/mL and cell viability was 94.3% before inoculation.
Tumor inoculation: BALB/c nude mice were used in this study. Each mouse was inoculated with estrogen tablets 48 hours before cell inoculation (0.3 mg/pellet, 60 days to release). […]

MCL-1 protein = MCL-1 protein (eIF4E regulated) levels in multiple myeloma cell line MM.1R (FIG. 11B); assay type: cell-based; settings: MM.1R cells, 2 hours
ZR-75-1 = ZR-75-1 compound screening cell viability, Alamar Blue (Example 6); assay type: cell-based; settings: Homo sapiens, 96 h, ZR-75-1 cells, Media 1% FBS, read-out: ZR-75-1 Cell Viability, 4 Days: IC50
4E-BP1 = experiment: Hyperphosphorylation of 4E-BP1 in multiple myeloma cell line MM.1R (FIG. 11A); assay type: cell-based; settings: MM.1R cells, 2 hours

SMILES	IC50 (LoVo)	IC50 (T47D)	IC50 (NCIH510A)	IC50 (HPAFII)	IC50 (NIHOVCAR3)	tumor size growth (ZR-75-1 tumor)	MCL-1 protein (eIF4E regulated) levels (MCL-1 protein)	IC50 (ZR-75-1)	relative levels of hyperphospho-4E-BP1 (4E-BP1)
CC(C)Cc1sc(Nc2ncc(-c3cccs3)cc2C(=O)O)nc1C1(C)CCCCC1 [Compound I-27]	≤ 1000 nM	≤ 1000 nM	≤ 1000 nM	1000 to 8000 nM	1000 to 8000 nM				
CC(C)Cc1sc(Nc2ncc(-c3cccs3)cc2C(=O)O)nc1C1CCC(F)(F)CC1 [Compound I-29]	1000 to 8000 nM	1000 to 8000 nM	≤ 1000 nM	1000 to 8000 nM	1000 to 8000 nM				
CC(C)Cc1sc(Nc2ncc(-c3cccs3)cc2C(=O)O)nc1C1CCCCC1 [Compound I-3]	1000 to 8000 nM	1000 to 8000 nM	1000 to 8000 nM	≤ 1000 nM	1000 to 8000 nM			< 1000 nM	

Further lines, with some results ahead:

IC50 (LoVo)	IC50 (T47D)	SMILES	IC50 (NCIH510A)	IC50 (HPAFII)	IC50 (NIHOVCAR3)	tumor size growth (ZR-75-1 tumor)	MCL-1 protein (eIF4E regulated) levels (MCL-1 protein)	IC50 (ZR-75-1)	relative levels of hyperphospho-4E-BP1 (4E-BP1)
≤ 1000 nM	≤ 1000 nM	CC(C)Cc1sc(Nc2ncc(-c3cccs3)cc2C(=O)O)nc1C(C)(C)C [Compound I-11]	≤ 1000 nM	≤ 1000 nM	≤ 1000 nM	reduced tumor size growth	reduces	< 1000 nM	significantly lowers relative levels of hyperphospho-4E-BP1
≤ 1000 nM	≤ 1000 nM	CC(C)Cc1sc(Nc2ncc(-c3cccs3)cc2C(=O)O)nc1C1=CCCC1 [Compound I-8]	≤ 1000 nM	≤ 1000 nM	≤ 1000 nM				
